Assays:
Assay in all cases: Antimicrobial screening, disc diffusion
Type in all cases: cell-based
[1] = system: Aspergillus fumigatus (RCMB 2003); conditions: compounds isolated from Cunninghamella elegans
Procedure: (§1) The alcoholic extracts obtained were used for testing their antimicrobial activity. Each extract (0.5 g) was dissolved in 10 ml water. Same concentrations for the successive extracts (using diethyl ether, chloroform, ethyl acetate and n-butanol) were also prepared.
(§2) The representatives of Gram negative bacteria, namely Salmonella typhimuium (RCMB 0104), Escherichia coli (RCMB 0103), Pseudomonas aeruginosa (RCMB 0102) and Gram positive bacteria, namely Bacillus subtilis (RCMB 0107), Staphylococcus aureus (RCMB 0106), Streptococcus pyogenes (RCMB 0109), unicellular fungi, namely Candida albicans (RCMB 5002) and filamentous fungi, namely Aspergillus fumigatus (RCMB 2003) and Penicllium expansum (RCMB 1006) were used as test organisms (RCMB: The Regional Center for Mycology and Biotechnology, Al-azhar University Nasser City, Cairo, Egypt).
(§3) For antimicrobial screening the well known disc diffusion and agar well diffusion methods were used, together with the determination of minimum inhibitory concentration (MIC), see Duguid et al., Microbial Infections, The English Language Book Society, Churchill Livingston, Edingburgh, London, 1978; vol. 1, page 110.
(§4) Disc diffusion method: The agar disc diffusion method is employed for the determination of antimicrobial activities of the extracts of the investigated fungal species. Sterilized paper discs (Whatman No. 1) ([…]) were separately soaked in the extracts and transferred onto the surface of growth media seeded with the test organism. After incubation period, following suitable conditions for the test organism, the diameter of the inhibition zone around the discs was measured in millimeters. The obtained result was the mean of three experiments.
(§5) Each fungal species was grown on malt extract media at 28±2° C. for 14 days. The metabolites of the fungal species were screened for antimicrobial activity. The inhibition zones around each disc were measured, in millimeter, and recorded (Tables 1).

[2] = system: Bacillus subtilis (RCMB 0107); conditions: compounds isolated from Cunninghamella elegans
Procedure: as §1, §2, §3, §4, §5

[3] = system: Candida albicans (RCMB 5002); conditions: compounds isolated from Cunninghamella elegans
Procedure: as §1, §2, §3, §4, §5

[4] = system: Escherichia coli (RCMB 0103); conditions: compounds isolated from Cunninghamella elegans
Procedure: as §1, §2, §3, §4, §5

[5] = system: Penicllium expansum (RCMB 1006); conditions: Penicillium expansum; compounds isolated from Cunninghamella elegans
Procedure: as §1, §2, §3, §4, §5

[6] = system: Pseudomonas aeruginosa (RCMB 0102); conditions: Pseudomonas aeurginosa; compounds isolated from Cunninghamella elegans
Procedure: as §1, §2, §3, §4, §5

[7] = system: Staphylococcus aureus (RCMB 0106); conditions: compounds isolated from Cunninghamella elegans
Procedure: as §1, §2, §3, §4, §5

[8] = system: Streptococcus pyogenes (RCMB 0109); conditions: compounds isolated from Cunninghamella elegans
Procedure: as §1, §2, §3, §4, §5

Nc1ncnc2c1ncn2C1OC(CO)C(O)C1O (stereo not drawn) [Compound 4, 2-(6-amino-9H-purine-9-yl)-5-(hydroxymethyl)oxolane-3,4-diol]
Diameter of inhibition zone [1]: 00.0 mm
Diameter of inhibition zone [2]: 00.0 mm
Diameter of inhibition zone [3]: 00.0 mm
Diameter of inhibition zone [4]: 00.0 mm
Diameter of inhibition zone [5]: 00.0 mm
Diameter of inhibition zone [6]: 00.0 mm
Diameter of inhibition zone [7]: 30.0 ± 0.1 mm
Diameter of inhibition zone ([7]; listed as compound 4): 30.0±0.01 mm
Diameter of inhibition zone [8]: 00.0 mm
